Measurements published in patent US20140323420A1, “REDUCING TRANSMISSION OF SEXUALLY TRANSMITTED INFECTIONS” (University of Rochester, priority 2011, published 2014).
“Also recorded” adds a separate entry of the source. Read-outs that look alike come from different tables or passages of the source.

Legend:
[1] = biological target: T1, Aβ(1-42) fibrils (Homo sapiens, UniProt P05067); test: Example 4: centrifugation fluorescence binding assay of 1-5 to Aβ(1-42) fibrils
T1 construct: Aβ(1-42) peptide was purchased from GL Biochem (Shanghai, China) Ltd; purchased GL Biochem (Shanghai, China) Ltd; host or cells: synthetic peptide; fibrils grown in PBS at 37 °C for 24 h
Protocol: The binding of BTA monomer oligomer to amyloid fibrils was measured according to the centrifugation assay described by Levine for BTA-1 to Aβ fibrils (Levine et al., Amyloid 12:5-14 (2005)). […] These incubations were performed in duplicate runs and allowed to equilibrate for 12 hours at room temperature. After equilibration, each solution was centrifuged at 16,000 g for 20 minutes at 4° C. The supernatants were separated from the pelleted fibrils, and 220 μL of fresh 5% DMSO/PBS was added to re-suspend the pellets. 100 μl aliquots of each re-suspended pellet was pipetted into a cuvette (ultramicrocuvette, 10-mm light path, Hellma®, Müllheim, Germany), and the fluorescence of the bound molecule was determined at 355 nm excitation and 420 nm emission using a spectrofluorometer (Photon Technology International, Inc., Birmingham, N.J.). Each experiment was repeated at least 3 times. Error bars represent standard deviations from the mean. […] The data were processed using Origin 7.0 (MicroCal Software, Inc., Northampton, Mass.).

[2] = biological target: T2, SEVI fibrils (Homo sapiens, UniProt P15309); test: Example 3: fluorescence assay, Kd of monomer and oligomers 1-5 to SEVI fibrils; assay type: binding; settings: Example 3, Table 2, estimated
T2 construct: PAP248-286 peptide was synthesized by New England Peptide; purchased New England Peptide (Gardner, Mass.); host or cells: chemical synthesis
T2 sequence (P15309 248-286 limits assumed): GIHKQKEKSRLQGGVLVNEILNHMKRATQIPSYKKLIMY
Protocol: To test whether binding affinity/avidity is reduced in oligomeric forms, the binding of monomeric and oligomeric forms was assayed to determine the affinity/avidity constants (Kd) for the binding of monomer and oligomers 1-5 to amyloid fibrils formed from SEVI peptides.

[3] = biological target: T2, SEVI fibrils; test: Example 4: centrifugation fluorescence binding assay of 1-5 to SEVI fibrils; settings: Table 3, 5% DMSO/PBS
Source text: Each experiment was repeated at least 3 times. Error bars represent standard deviations from the mean.
When the Kd values of compounds 1-5 to SEVI fibrils was examined, a similar trend for improved binding of the oligomeric BTA compounds was observed (Table 3). The greatest improvement in binding as a function of increasing valence number in the oligomer was observed when comparing the monomer to dimer and the tetramer to pentamer.

[4] = biological target: T2, SEVI fibrils; test: Fluorescence polarization: displacement of FITC-heparin from SEVI fibrils; assay type: binding; settings: SEVI + 16 μg/ml FITC-heparin, 1 h room temperature
Protocol: Samples were incubated 1 h at room temperature and read on a PerkinElmer Life Sciences Envision 2012 multilabel reader (PerkinElmer, Waltham, Mass.) at an excitation λ=480 nm and emission λ=535 nm. The horizontal and vertical polarized fluorescence intensities were recorded, and the calculated polarization was determined in millipolarization units.
Samples were incubated for 1 hour at room temperature and polarized fluorescence was measured.

[5] = biological target: T2, SEVI fibrils; test: Flow cytometry: binding of SEVI-biotin fibrils to the Jurkat cell surface; assay type: cell-based; settings: 1 h; for MFI (mean fluorescent intensity): Jurkat cells + SEVI-biotin
Protocol: Cells were incubated for 1 h at 37° C., washed, and stained for 1 h with a covalent conjugate of streptavidin and fluorescein isothiocyanate (SA-FITC). Cells were washed and run on an Accuri C6 Flow Cytometer (Accuri Cytometers, Ann Arbor, Mich.). Data were analyzed using FlowJo (TreeStar Inc, Ashland, Oreg.).
After that time, fibrillar structures were examined by ThT fluorescence. ThT changes in fluorescence intensity when intercalated into the β-sheet structure common to amyloid fibrils; therefore, ThT fluorescence serves as a surrogate measure for fibrillar structure of SEVI and for the stability of SEVI fibrils. […] Binding of the fibrils to the cell surface was detected using SA-FITC. […] Surface-bound fibrils were detected with SA-FITC and measured by flow cytometry. Results are shown as percentage of cells with bound fibrils (SA-FITC+) as well as mean fluorescent intensity (MFI).

[6] = test system: HIV-IIIB; test: Screening hits: SEVI-mediated enhancement of HIV-IIIB infection, CEM-M7 cells; assay type: cell-based, HIV-1; settings: 50 μM, 15 μg/mL SEVI, 48 hours
Protocol: Each of the selected compound shown below was incubated at 50 μM with 15 μg/mL of SEVI for 10 minutes. HIV-IIIB was then added and incubated for an additional 10 minutes prior to being added to CEM-M7 cells. After two hours the inoculum was removed and the cells washed with PBS. The cells were incubated for an additional 48 hours and then HIV infection was assessed by luciferase activity. Luciferase activity is graphed for each of the selected compounds in FIG. 29.
A high throughput assay was established to identify SEVI-binding compounds.

[7] = test system: HIV-1ADA; test: SEVI-mediated enhancement of HIV-1 ADA infection, CEM-M7 cells, luciferase; assay type: cell-based
Protocol: Treated virions were then added to 5×10^4 CEM-M7 cells/well in 96-well flat-bottomed tissue culture plates. After 2 h, the medium axis were replaced. Infection was assayed after 48 h by quantifying luciferase expression using the Promega Dual-Luciferase assay and a Beckman Coulter DTX880 plate reader.

[8] = test system: HIV-1 IIIB; test: Virus binding assay (p24), HIV-1 IIIB virions; assay type: cell-based; settings: Jurkat cells; for Inhibition of SEVI-enhanced binding of HIV-1 virions to the cell surface (p24 ELISA): with SEVI, 90 min
Protocol: (§1) After 10 minutes, the stocks were diluted 15 fold and incubated with CEM 5.25 cells.

[9] = test system: HIV-1ADA; test: Virus binding assay (p24), HIV-1 ADA virions; assay type: cell-based; settings: A2En endocervical cells, with SEVI
Protocol: After 90 min, cells were washed to remove any unbound virus, and bound virions were detected using an HIV-1 p24 antigen capture assay (Advanced Bioscience Laboratory).
Surface-bound virions were then measured by p24 ELISA after washing off unbound virus. […] Additionally, this experiment was performed using A2En cells, a primary cell-derived endocervical cell line.

[10] = test system: HIV-1IIIB; test: SEVI-mediated enhancement of HIV-1 IIIB infection, CEM-M7 (CEM 5.25) cells, luciferase; assay type: cell-based; settings: for Inhibition of SEVI-mediated enhancement of HIV-1 infection (luciferase): CEM cells, with SEVI fibrils, increasing concentrations
Protocol: After 2 h, the medium […] were replaced.

[11] = test system: HIV-1ADA; test: Semen-mediated enhancement of HIV-1 ADA infection, CEM-M7 cells; assay type: cell-based
Protocol: After 15 min, the semen and virus mixture was diluted 1:15 into 5×10^4 CEM-M7 cells/well in a 96-well plate. Cells were washed after 1 h, and infection was assayed at 48 h as above.
As human semen has been reported to be toxic to cultured cells, a protocol that minimized this toxicity was used. Pooled human semen was added to HIV-1IIIB virus in a 1:1 dilution. After 15 min, this solution was added to cells at a 1:15 dilution for a final concentration of 3.3%.

[12] = test system: HIV-1IIIB; settings: previously reported value for BTA-EG6; cited from earlier work
[13] = biological target: T3, aggregated Alzheimer disease-related Aβ(1-42) peptides (Homo sapiens, UniProt P05067); test: Fluorescence binding assay of BTA-EG6 to aggregated Aβ(1-42) peptides; settings: same fluorescence binding assay
T3 construct: aggregated Alzheimer disease-related Aβ(1-42) peptides
Source text: Error bars represent standard deviations from the mean.

[14] = test system: A2En cells; test: HIV-1 BaL + SEVI chemokine release from A2En cells (ELISA); assay type: cell-based, human; settings: HIV-1BAL virions + SEVI
Protocol: (§2) Supernatant was collected at 6 and 24 h, and the production of the chemokines IL-8 and Mip-3α was measured by ELISA (R&D Systems). […] After 6 h, supernatants were collected, and the production of the chemokines IL-8 and Mip-3α was measured by ELISA (R&D systems, Minneapolis, Minn.).

[15] = test system: cervical epithelial cell lines SiHa, A2En, 3EC1; assay type: cell-based, human
Protocol: Cytokine and chemokine production was assessed at 12 h by ELISA (R&D systems). Cells were also treated with 0.1% nonoxynol-9 as a positive control for cytotoxicity and with 0.1 μg/ml FSL1, a synthetic diacylated lipoprotein derived from Mycoplasma salivarium (InvivoGen, San Diego, Calif.), as a positive control for chemokine production.
Nonoxynol-9 (non-9), a spermicide, was used as a positive control. […] Cell culture supernatants were then assessed for the presence of the inflammatory cytokines and chemokines Mip-3α (FIG. 5B), IL-8 (FIG. 16C), IL-1β, and TNF-α.

[16] = test system: cervical epithelial cell lines SiHa, A2En, 3EC1; assay type: cell-based, human; remark: listed apart in the source
Source text: For a compound to be a legitimate HIV-1 microbicide candidate, it must not have toxic or inflammatory effects on the cervical […]. Loss of this protective layer leads to an increased ability for HIV-1 to cross the mucosal barrier, and inflammatory effects drive recruitment of HIV-1 target cells, further decreasing the natural barriers against successful transmission of HIV. […] To do this, the following cell lines were used: 1) SiHa cells, a cervical carcinoma cell line; 2) A2En cells, a primary cell-derived line from the endocervical […]; and 3) 3EC1 cells, a primary cell-derived line from the ectocervical […]. […] Viability was assessed at 24 h by using the resazurin cytotoxicity assay. Resazurin cytotoxicity data were confirmed by trypan blue counts of viable cells.

[17] = test system: HIV-1IIIB; test: Semen-mediated enhancement of HIV-1 IIIB infection, CEM cells; assay type: cell-based; settings: HIV-1 IIIB preincubated with 50% semen, diluted 15 fold onto CEM cells
Protocol: as §1

[18] = test system: HIV-1BaL; test: SEVI-mediated enhancement of HIV-1 BaL infection of PBMCs, p24; assay type: cell-based
Protocol: Cells were washed at 3 h, and infection was analyzed at day 4 using the HIV-1 p24 antigen capture assay (Advanced Bioscience Laboratory).

[19] = test system: SiHa cells; test: Semen-mediated chemokine release from SiHa cells (ELISA); assay type: cell-based; settings: pooled human semen, 33 μg/ml BTA-EG6, 6 h
Protocol: as §2
After 6 h, supernatants were collected and analyzed for production of IL-8 or MIP-3α.

[20] = biological target: T2, SEVI fibrils; test: ThT fluorescence stability of preformed SEVI fibrils; settings: 3 h incubation
Source text: After that time, fibrillar structures were examined by ThT fluorescence. ThT changes in fluorescence intensity when intercalated into the β-sheet structure common to amyloid fibrils; therefore, ThT fluorescence serves as a surrogate measure for fibrillar structure of SEVI and for the stability of SEVI fibrils.

[21] = Table 3, 5% DMSO/PBS, read-out: Kd (nM) to Aβ(1-42) fibrils
[22] = heparin (100 μg/ml) positive control

T1 sequence (P05067 672-713 limits assumed): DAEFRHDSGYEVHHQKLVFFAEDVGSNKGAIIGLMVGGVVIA
T3 sequence (P05067 672-713 limits assumed): as above

For CCNC(=O)CCOCCOCCOCCOCCNC(=O)CCNc1ccc(-c2nc3ccc(C)cc3s2)cc1 [Compound 1, BTA Monomer], the Kd [1, 21] was 235 ± 75 nM, the Kd [2] was 107 ± 16 nM and the Kd [3] was 236 ± 90 nM.

For heparin [reference compound], the “Binding to SEVI fibrils, displacement of FITC-heparin (decrease of polarization)” value (from here on “Binding … (decrease of polarization)”) [4] was “the polarization decreased”, the “SA-FITC+ (%), percentage of cells with bound fibrils” value [5, 22] was 31.7% and the “MFI (mean fluorescent intensity)” value [5, 22] was 376.

For CCNC(=O)C(CCCCNC(=O)CCOCCOCCOCCOCCNC(=O)CCNc1ccc(-c2nc3ccc(C)cc3s2)cc1)NC(=O)C(CCCCNC(=O)CCOCCOCCOCCOCCNC(=O)CCNc1ccc(-c2nc3ccc(C)cc3s2)cc1)NC(=O)C(CCCCNC(=O)CCOCCOCCOCCOCCNC(=O)CCNc1ccc(-c2nc3ccc(C)cc3s2)cc1)NC(=O)CCOCCOCCOCCOCCNC(=O)CCNc1ccc(-c2nc3ccc(C)cc3s2)cc1 (stereo not shown) [Compound 4, BTA Tetramer], the Kd [1, 21] was 20 ± 5 nM, the Kd [2] was 56 ± 6 nM and the Kd [3] was 59 ± 6 nM.

In the case of Cc1ccc2nc(-c3ccc(NCCC(=O)NCCOCCOCCOCCOCCC(=O)NCCNC(=O)CCOCCOCCOCCOCCNC(=O)CCNc4ccc(-c5nc6ccc(C)cc6s5)cc4)cc3)sc2c1 [Compound 2, BTA Dimer], the “Fold lower Kd than monomer 1, Aβ(1-42) fibrils” value [1] is reported as 8 fold, the Kd [1] is reported as 29 ± 4 nM and the Kd [2] is reported as 75 ± 10 nM. The Kd [3] was 69 ± 1 nM.

With COc1ccc2cc3[n+](cc2c1OC)CCc1cc2c(cc1-3)OCO2 [Compound 11A5] the “Inhibition of SEVI-mediated enhancement of HIV infection (luciferase)” value [6] was “inhibited SEVI-mediated enhancement of HIV infection”.

For Cc1ccc2nc(-c3ccc(NCCOCCOCCOCCOCCOCCO)cc3)sc2c1 [BTA-EG6], the “Inhibition of SEVI-mediated enhancement of HIV-1 infection (luciferase)” value (“Inhibition … of HIV-1 infection (luciferase)” for short) ([7]; CEM-M7, 15 μg/ml SEVI) was “significant dose-dependent inhibition”, the “Effect on infectivity of HIV alone” value ([7]; CEM-M7, absence of SEVI) was “No effect on the infectivity of HIV-1ADA was observed” and the “Effect on binding of HIV virions to the cell surface” value ([8]; absence of SEVI) was “no effect on the binding of HIV virions to the cell surface”. For the same compound, the “Inhibition of SEVI-enhanced binding of HIV-1 virions to the cell surface (p24 ELISA)” value (shortened to “Inhibition … (p24 ELISA)”) [8] was “decrease in HIV-1 binding to the cells”, the “Inhibition … (p24 ELISA)” value ([8]; listed as BTAEG6) was “efficiently abrogated” and the “Inhibition … (p24 ELISA)” value [9] was “this effect was inhibited”. For the same compound, the “Inhibition … of HIV-1 infection (luciferase)” value [10] was “decreasing levels of luciferase activity; also recorded: reducing infectivity nearly back to baseline levels”, the “Effect on infectivity of HIV alone” value ([10]; CEM-M7, absence of SEVI) was “no effect on the infectivity of HIV virus alone” and the “Binding … (decrease of polarization)” value [4] was “capable of binding SEVI; also recorded: able to displace fluorescent heparin from the SEVI fibrils in a dose-dependent fashion”. For the same compound, the “Inhibition of semen-mediated enhancement of HIV infection (luciferase)” value [11] was “this effect extended to infection with an R5 virus”, the “Concentration required to completely neutralize the effects of SEVI on HIV-1 infection” value [12] was 44 µM and the “SA-FITC+ (%), percentage of cells with bound fibrils” value ([5]; BTA-EG6 high (27 μg/ml)) was 21.2%. The “SA-FITC+ (%), percentage of cells with bound fibrils” value ([5]; BTA-EG6 low (5.5 μg/ml)) was 36.6%, the “MFI (mean fluorescent intensity)” value ([5]; BTA-EG6 high (27 μg/ml)) was 38.7 and the “MFI (mean fluorescent intensity)” value ([5]; BTA-EG6 low (5.5 μg/ml)) was 95.3. For the same compound, the Kd [13] was 111 ± 32 nM, the “Inhibition of SEVI-increased IL-8 release” value [14] was “able to inhibit this release” and the “Cytokine production (IL-1b, MIP-3a, TNF-a) by ELISA” value [15] was “do not induce cytokine production”. The “Cell viability (Alamar Blue)” value [16] was “did not affect the cell viability”, the “Cell viability (resazurin cytotoxicity assay)” value [16] was “did not have any effects on cell viability” and the “Inhibition of semen-mediated enhancement of HIV infection (luciferase)” value [17] was “capable of inhibiting semen mediated enhancement of HIV infection; also recorded: efficiently inhibited the semen mediated enhancement of HIV-1 infection”. For the same compound, the “Inhibition of SEVI-mediated enhancement of HIV-1 infection (p24)” value ([18]; HIV-1BAL, 15 μg/ml SEVI) was “able to inhibit SEVI-mediated enhancement of HIV-1 infection in PBMCs”, the “Effect on infectivity of HIV alone” value ([18]; HIV-1BaL, absence of SEVI) was “no effect on the infectivity of HIV-1BaL” and the “Effect on semen-stimulated IL-8 and MIP-3α production” value [19] was “no inhibitory effect on semen-stimulated chemokine production”. The “Effect on stability of preformed SEVI fibrils (ThT fluorescence)” value [20] was “no effect on fibrillar stability”.

For COc1ccc(Cl)cc1-c1ccc(-c2c(C#N)c(N)n3c(nc4ccccc43)c2C#N)o1 [Compound 8E2], the “Inhibition of SEVI-mediated enhancement of HIV infection (luciferase)” value [6] was “inhibited SEVI-mediated enhancement of HIV infection”.

Work on Cc1ccc2nc(-c3ccc(NCCC(=O)NCCOCCOCCOCCOCCC(=O)NCCN(CCNC(=O)CCOCCOCCOCCOCCNC(=O)CCNc4ccc(-c5nc6ccc(C)cc6s5)cc4)CCNC(=O)CCOCCOCCOCCOCCNC(=O)CCNc4ccc(-c5nc6ccc(C)cc6s5)cc4)cc3)sc2c1 [Compound 3, BTA Trimer] yielded a Kd [1, 21] of 26 ± 6 nM, a Kd [2] of 40 ± 6 nM and a Kd [3] of 40 ± 6 nM.

With Cc1ccc2nc(-c3ccc(NCCOCCOCCOCCO)cc3)sc2c1 [BTA-EG4] the “Inhibition … (p24 ELISA)” value [8] was “decrease in HIV-1 binding to the cells”, the “Inhibition … of HIV-1 infection (luciferase)” value [10] was “decreasing levels of luciferase activity” and the “Binding … (decrease of polarization)” value [4] was “capable of binding SEVI”. The “Cytokine production (IL-1b, MIP-3a, TNF-a) by ELISA” value [15] was “do not induce cytokine production”, the “Cell viability (Alamar Blue)” value [16] was “did not affect the cell viability” and the “Inhibition of semen-mediated enhancement of HIV infection (luciferase)” value [17] was “capable of inhibiting semen mediated enhancement of HIV infection”.
